The text below walks through data of patent US11532406B2, “High specific activity preparation of F-18 tetrafluoroborate” (Mayo Foundation for Medical Education and Research, priority 2016, dated 2022).

Structures are written as SMILES.

Data set [1] can be described thus: Stability of ^18F-TFB (radio-TLC and anion chromatography HPLC). It is filed as physicochemical. To be noted: NaBF4 stock solution stored for 7 month at room temperature. As for the experimental part:
The product ^18F-TFB was analyzed for radiochemical purity by both radio-TLC (MeOH, Rf=0.8-0.85) and anion chromatography HPLC with radioactivity detector (Dionex IC-2100, AS19 analytical column: 4.7×150 mm; eluent: 35 mM KOH; sample volume: 25.L; flow rate: 1 mL/min; retention times: 7.6 min for ^18F-TFB, […]). Chemical purity and specific activity were analyzed by anion chromatography HPLC (retention times: 3.5 min for fluoride, 4.3 min for chloride, and 7.6 min for BF4—). Residual organic solvents were analyzed by GC (helium carrier gas flow at 10 cc/min through a MXTWAX column (Restek, Bellefonte, Pa., 0.53 mm ID, 30 m length)).
After the synthesis, a sample was diluted with water for the analysis. With the eluent of methanol on silica gel plate, purities of >98% were obtained on the radio-TLC scanner.
^18F-TFB was prepared and formulated in sterile 0.9% NaCl under cGMP conditions as previously described (12). Decay-corrected radiochemical yields of 32±2% and radiochemical purities (RCPs) >98% were obtained. Specific radioactivity of 2.2±0.9 GBq/μmol was achieved from starting ^18F-fluoride radioactivity of 20-31 GBq. In vitro RCP remained >96% up to 8 h at room temperature.

Another data set concerns NIS. To be noted: reference (21); read-out: IC50 for inhibition of iodine uptake by NIS in thyroid; cited from earlier work.

For `F[B-](F)(F)F.[Na+]` [NaBF4, reference compound], the “TFB decayed (HPLC)” value in data set [1] is on record as 50%. On to `F[B-](F)(F)F` [TFB, tetrafluoroborate], for which the IC50 in the data set on NIS is 100 to 1000 nM.

The IC50 is the concentration that gives 50% inhibition.
